Laboratory results published in EP4623906A1, “OPHTHALMIC FORMULATION COMPRISING PYRIDINE PHENYL COMPOUND, PREPARATION METHOD THEREFOR, AND USE THEREOF” (Zhuhai United Laboratories Co., Ltd., priority 2022, dated 2024).

Key:
Assay type in all cases: physicochemical
[1] = Solubilization trials of compound of formula (IX) with different solubilizing agents, grinding and heating (Examples 1-11)
Method: Examples 1-11 were prepared according to the specific processes in Table 1. […]

[2] = Preliminary stability of eye drops with antimicrobial preservatives, in the dark at 25°C and 40°C for 5 days (Examples 52, 55, 56); conditions: Compound of Formula (IX), 0 h
Method: According to the prescription ratio in Table 11, the active compound of formula (IX) was weighed, and dispersed in isopropanol with stirring until the solution was clear. HP-β-CD was slowly added under stirring, until the solution was clear. Purified water in the prescribed ratio was slowly added to the isopropanol solution under stirring, and stirred for 1 hour to obtain a clear solution. The above solution was freeze-dried in a vacuum freeze dryer to obtain a loose white freeze-dried powder. Freeze-dried powder of the inclusion compound was dissolved in a re-dissolving medium, and successively filtered through 0.45 µm and 0.22 µm mixed filter membrane to obtain active compound eye drops, and filled in a sample packaging of 2 mL per bottle, to obtain eye drops.
For multi-dose packaged eye drops, the addition of antimicrobial preservatives is needed to avoid microbial contamination during use. The effects of two antimicrobial preservatives, benzalkonium chloride and chlorhexidine acetate, on prescription stability were investigated through Examples 52, 55, and 56. The preliminary stability of eye drops from Example 52, Example 55, and Example 56 was investigated by placing them in the dark at 25°C and 40°C for 5 days.

[3] = Preliminary compatibility of packaging materials, in the dark at 25°C (Examples 52-54); parameters: unit not given here; conditions: Compound of Formula (IX) itself
Method: Examples 53 and 54 were packaged in low-density polyethylene (PE) pharmaceutical eye drops bottles, brown polyester (PET) pharmaceutical eye drops bottles and ampoules, respectively. They were placed in the dark at 25°C to investigate the preliminary compatibility of the packaging materials.

CC(C)(O)c1ccc(-c2cnc(C(C)(C)O)c(N)c2)cc1N [Compound of Formula (IX)]
Solubility in water [1]: insoluble or almost insoluble
Peak at retention time 19.6 min, relative retention time 1.00 [2]: 93.14
Peak at retention time 20.2 min, relative retention time 1.03 [2]: 0.16
Peak at retention time 21.1 min, relative retention time 1.08 [2]: 0.39
Peak at retention time 21.5 min, relative retention time 1.10 [2]: 0.41
Peak at retention time 23.8 min, relative retention time 1.21 [2]: 0.11
Peak at retention time 24.0 min, relative retention time 1.22 [2]: 2.41
Peak at retention time 24.5 min, relative retention time 1.25 [2]: 0.50
Peak at retention time 24.7 min, relative retention time 1.26 [2]: 0.25
Peak at retention time 24.8 min, relative retention time 1.27 [2]: 0.12
Peak at retention time 25.6 min, relative retention time 1.31 [2]: 0.09
Peak at retention time 26.0 min, relative retention time 1.33 [2]: 0.15
Peak at retention time 26.2 min, relative retention time 1.34 [2]: 2.15
Peak at retention time 28.3 min, relative retention time 1.44 [2]: 0.13
Impurity RRT 0.44 [3]: 0.06
Impurity RRT 1.17 [3]: 0.05
Impurity RRT 1.29 [3]: 0.20
Impurity RRT 1.34 [3]: 0.10
Impurity RRT 1.55 [3]: 0.07
Impurity RRT 1.59 [3]: 0.02
Impurity RRT 1.66 [3]: 0.04
Impurity RRT 1.75 [3]: 0.04
Impurity RRT 1.81 [3]: 0.03
Impurity RRT 1.84 [3]: 0.25
Impurity RRT 1.89 [3]: 0.04
Impurity RRT 1.97 [3]: 0.03
Impurity RRT 2.10 [3]: 0.09
Impurity RRT 2.19 [3]: 0.21
Impurity RRT 2.23 [3]: 0.02
Impurity RRT 2.27 [3]: 0.03
Total impurity [3]: 1.03
